We go through six compounds from US11154513B2, “Semifluorinated compounds” (NOVALIQ GMBH, priority 2015, dated 2021).

The nature of data set [1]: Refractive index of the mixtures. Particulars: mixture with the 1-perfluoroalkylalkane; FIG. 2, FIG. 3. The format is physicochemical. As for the experimental part: In a particularly preferred embodiment, the refractive index of the liquid solution is in the range of from about 1.30 to about 1.35 at 20° C., as determined by refractometer.
The refractive index of the mixtures was also determined. For topically applied ophthalmic compositions, the refractive index of the composition should preferably be similar, or adapted to that of the eye and lens, for instance as close to that of physiological tear fluid as possible. If the refractive index of a composition is not similar, when applied to the surface of the eye, a patient may experience blurring or impaired vision. It is observed, that the amount of the compound CF3(CF2)5—CH(CH3)—(CH2)5—CH3 or has an effect on refractive index.

Data set [2] is described as follows: Evaporation time of 10 μL droplet on glass surface. Particulars: for effect of increased amount of the compound on evaporation time of the mixture: FIG. 1; for Evaporation time: 10 μL droplet, glass surface, room temperature; for Evaporation time / Relative Evaporation Time: F4H5 / CF3—(CF2)3—CH(CH3)—(CH2)2—CH3 mixtures; for Relative Evaporation Time: relative to Sample 1. The format is physicochemical. On the procedure:
The evaporation time of mixtures of the semifluorinated alkane CF3(CF2)3(CH2)4CH3(F4H5) and CF3—(CF2)3—CH(CH3)—(CH2)2—CH3 was evaluated. A droplet of 10 μL volume of each mixture was placed on a glass surface at room temperature. Time until evaporation was recorded by video-monitoring.
The evaporation time of mixtures of the semifluorinated alkane CF3(CF2)5(CH2)7CH3(F6H8) and CF3(CF2)5—CH(CH3)—(CH2)5—CH3 was evaluated analogously.

Data set [3] is described as follows: Differential Scanning Calorimetry of mixtures.
Experimental: Differential Scanning Calorimetry (DSC 1, Mettler Toledo, Greifensee, Switzerland) is used to characterize structure and phase behavior of mixtures of CF3(CF2)5—CH(CH3)—(CH2)5—CH3 and CF3(CF2)5(CH2)7CH3. DSC was employed to obtain data on transitions by temperature rising scans with heating rate of 1° C./min. Sealed standard aluminum crucibles (40 μl, Mettler Toledo) were used.
In the next data set the test system is Rabbit corneas. On the procedure: Anim., 2008 (36) p 25-32; and N. Schrage et al, Graefes Arch Clin Exp Ophthalmol 2012 (250), 1330-1340).
Method. Rabbit corneas were obtained and placed in an artificial anterior ocular chamber which was gently filled with serum-free minimal essential medium (Eagle's MEM) containing Earle's salts and HEPES buffer for nutrition. The medium was constantly replenished by a micropump to imitate the physiological condition of the eye. The culture chambers were held at 32° C. under normal air without supplementary CO2 and >95% relative humidity. Five corneas per test substance (n=5) were used except for the positive control with which two corneas (n=2) were tested.
After 12 h of stabilization in the culture chamber, the corneas were evaluated by microscopy and corneas with intact epithelium and without opacities were selected. Four small abrasions (2.3-4.3 mm^2) were applied to the surface of the selected corneas with a cornea drill. All defects were monitored by fluorescein sodium staining (0.17% aq. solution) and microscopy.
The test substances were administered one hour after induction of the corneal erosion and were applied six times daily onto the apex of the corneas (30-50 μL every four hours). A soft-tipped cannula, with continuous suction was placed on the lowest part of the corneoscleral region within the culturing chamber to remove any excess fluid. Experiments were terminated after 3 days of application. Biomicroscopic images of the corneas were taken daily to document the corneal healing process using a phase-contrast microscope integrated camera (KY-F1030U, JVC, (Bad Vilbel, Del.) mounted on a Z16 APO Microscope (Wetzlar, Del.)). All defects were monitored by fluorescein sodium stains (0.17% aq. solution) with yellow green fluorescence indicating the areas of epithelial defects. Erosion sizes were determined using a software tool of the microscope (DISKUS). At the end of the 3 days, the experiment was terminated and all corneas were fixed in 3.7% formaldehyde and stained with a hematoxylin-eosin dye for microscopic evaluation. To monitor the metabolic activity of the cornea, glucose and lactate concentrations were photometrically quantified in the outflow medium from the artificial anterior chambers.

[4] abbreviates: DSC heating rate 1° C./min, mixture with CF3(CF2)5(CH2)7CH3.

Read-outs that look alike come from different tables or passages of the source.

For `CCCC(C)C(F)(F)C(F)(F)C(F)(F)C(F)(F)F` (stereo not shown) [CF3—(CF2)3—CH(CH3)—(CH2)2—CH3, 2-Perfluorobutyl-pentane], the “effect of increased content on refractive index of the mixture” value in data set [1] is listed as “increasing refractive index value”. Also, the “effect of increased amount of the compound on evaporation time of the mixture” value in data set [2] was “increase the evaporation time”.

In the case of `CCCCCCC(C)C(F)(F)C(F)(F)C(F)(F)C(F)(F)C(F)(F)C(F)(F)F` (stereo not shown) [CF3—(CF2)5—CH(CH3)—(CH2)5—CH3, 2-Perfluorohexyl-octane], in data set [3] (presence in a mixture of F6H8), the “effect on melting enthalpy” value was “decreased” and the “effect on melting temperature” value is “significant reduction”. In addition, in data set [1], the “effect of increased content on refractive index of the mixture” value is “increasing refractive index value”. In data set [2], the “effect of increased amount of the compound on evaporation time of the mixture” value was “significantly decreases the evaporation time”.

In the case of `CCCCCC(F)(F)C(F)(F)C(F)(F)C(F)(F)F` [Sample 1, CF3(CF2)3(CH2)4CH3], in data set [2], the Evaporation time is recorded as 304 s and the “Relative Evaporation Time” value is reported as 1.00.

With `CCCC(C)C(F)(F)C(F)(F)C(F)(F)C(F)(F)F` (stereo not shown) [Sample 3, CF3—(CF2)3—CH(CH3)—(CH2)2—CH3], in data set [2], the Evaporation time came out at 322 s and the “Relative Evaporation Time” value is listed as 1.064.

For “CF3(CF2)5(CH2)7CH3 [0 wt % CF3—(CF2)5—CH(CH3)—(CH2)5—CH3]”, in data set [3] (setting [4]), the “Low temperature transition Endset” value was −38.32 °C, the “Low temperature transition Onset” value is −45.47 °C, the “Low temperature transition Peak” value was −40.37 °C and the “Low temperature transition ΔH” value is -0.69 J/g.

On to benzalkonium chloride [0.01% BAC], for which, in the data set with Rabbit corneas, the “course of induced epithelial lesions” value is reported as “progressive increase of the induced epithelial lesions”. Moreover, the “Corneal Erosion Size, Mean” value in the data set on Rabbit corneas (Day 0) was 11.57 mm^2; in the data set with Rabbit corneas (Day 1, applied six times daily 30-50 μL) it was 5.91 mm^2; with Rabbit corneas (Day 2, applied six times daily 30-50 μL) it was 8.74 mm^2; in the data set on Rabbit corneas (Day 3, applied six times daily 30-50 μL) it was 17.46 mm^2.
